Laboratory results as given in patent publication US20090247560A1, “Diaryl ketimine derivative” (Banyu Pharmaceutical Co., Ltd., priority 2006, published 2009).

Molecular target: T1, human MCH-1R (Homo sapiens, UniProt Q99705)
T1 construct: expressed in transfected cells; host or cells: CHO-K1 (American Type Culture Collection), membrane samples
Experiment: MCH binding inhibition test
Details: inhibition of specific [125I]MCH binding to membranes of CHO-K1 cells expressing human MCH-1R; 25° C., one hour, pH 7.4
Procedure: A human MCH-1R encoding cDNA sequence [FEBS Letters, Vol. 398, 253 (1996); Biochimica et Biophisica Acta, Vol. 1401, 216 (1998)] was cloned to a plasmid vector pEF/myc/cyto (Invitrogen Corporation). The obtained expression vector was transfected to host cells CHO-K1 (American Type Culture Collection) using Lipofectamine Plus Reagent (Life Technology Inc.) to provide MCH-1R expression cells.
Membrane samples prepared from the MCH-1R expression cells were incubated with each test compound and […] of [^125I]MCH (NEN Co.), in an assay buffer (50 mM Tris buffer comprising 10 mM magnesium chloride, 2 mM ethylenediamine tetraacetate, 0.01% bacitracin and 0.2% bovine serum albumin; pH 7.4) at 25° C. for an hour, followed by filtration through a glass filter CF/C (Wattman Co.). After washing the glass filter with 50 mM Tris buffer (pH 7.4) comprising 10 mM magnesium chloride, 2 mM ethylenediamine tetraacetate and 0.04% Tween-20, the radioactive activity on the glass filter was measured.

T1 sequence (Q99705 whole entry): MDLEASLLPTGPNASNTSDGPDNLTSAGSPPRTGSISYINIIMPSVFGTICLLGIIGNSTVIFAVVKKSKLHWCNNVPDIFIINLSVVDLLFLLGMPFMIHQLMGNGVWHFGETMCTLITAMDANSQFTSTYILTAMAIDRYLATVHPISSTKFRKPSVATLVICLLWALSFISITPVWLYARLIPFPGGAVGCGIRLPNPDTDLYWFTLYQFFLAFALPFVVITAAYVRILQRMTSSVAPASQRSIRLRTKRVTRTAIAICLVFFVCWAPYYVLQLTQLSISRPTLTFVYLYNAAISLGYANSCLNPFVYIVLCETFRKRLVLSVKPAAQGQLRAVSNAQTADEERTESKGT

Row | Structure (SMILES) | IC50 [nM]
1 | CC(c1ccc(/C(=N/OCCF)c2ccc(F)c(F)c2)nc1)N1CCC2(CC1)OCc1ccncc12 (single isomer, unassigned) [Example 2-1-3, (E)-(3,4-difluorophenyl){5-[1-(1H,1′H-spiro[furo[3,4-c]pyridine-3,4′-piperidin]-1′-yl)ethyl]pyridin-2-yl}methanone O-(2-fluoroethyl)oxime] | 1.55
2 | CC(c1ccc(/C(=N/OCC(C)(C)O)c2ccc(F)c(F)c2)nc1)N1CCC2(CC1)OCc1ccncc12 (single isomer, unassigned) [Example 3-1-13, (E)-(3,4-difluorophenyl){5-[1-(1H,1′H-spiro[furo[3,4-c]pyridine-3,4′-piperidin]-1′-yl)ethyl]-2-pyridinyl}methanone O-(2-hydroxy-2-methylpropyl)oxime] | 4.01
3 | CCO/N=C(\c1ccc(F)c(F)c1)c1ncc(CN2CCC3(CC2)OCc2ccncc23)cn1 [Example 1-3-2, (E) or (Z)-(3,4-difluorophenyl)[5-(1H,1′H-spiro[furo[3,4-c]pyridine-3,4′-piperidin]-1′-ylmethyl)pyrimidin-2-yl]methanone O-ethyloxime] | 8.9
4 | FCCO/N=C(/c1ccc(CN2CCC3(CC2)OCc2ccncc23)cc1)c1ccc(F)c(F)c1 [Example 2-1-2, (Z)-(3,4-difluorophenyl)[4-(1H,1′H-spiro[furo[3,4-c]pyridine-3,4′-piperidin]-1′-ylmethyl)phenyl]methanone O-(2-fluoroethyl)oxime] | 0.07
5 | CN(C)C(=O)CO/N=C(/c1ccc(CN2CCC3(CC2)OCc2cc(F)ncc23)cc1)c1ccc(F)c(F)c1 [Example 2-6, 2-{[((1Z)-(3,4-difluorophenyl){4-[(6-fluoro-1H,1′H-spiro[furo[3,4-c]pyridine-3,4′-piperidin]-1′-yl)methyl]phenyl}methylene)amino]oxy}-N,N-dimethylacetamide] | 0.27
6 | Cn1cc2c(cc1=O)C1(CCN(Cc3ccc(/C(=N/OCC#N)c4ccc(F)c(F)c4)nc3)CC1)OC2 [Example 2-10-2, {[((1E)-(3,4-difluorophenyl){5-[(5-methyl-6-oxo-5,6-dihydro-1′H,3H-spiro[furo[3,4-c]pyridine-1,4′-piperidin]-1′-yl)methyl]pyridin-2-yl}methylene)amino]oxy}acetonitrile] | 9.03
7 | CCO/N=C(\c1ccc(F)c(F)c1)c1ccc(CN2CCC3(CC2)OCc2cc[n+]([O-])cc23)cn1 [Example 3-1-11, (E)-(3,4-difluorophenyl){5-[(5-oxido-1H,1′H-spiro[furo[3,4-c]pyridine-3,4′-piperidin]-1′-yl)methyl]-2-pyridinyl}methanone O-ethyloxime] | 4.7
8 | Cn1cc2c(cc1=O)C1(CCN(Cc3ccc(/C(=N/OCF)c4ccc(F)c(F)c4)nc3)CC1)OC2 [Example 3-1-15, 1′-[(6-{(E)-(3,4-difluorophenyl)[(fluoromethoxy)imino]methyl}-3-pyridinyl)methyl]-5-methyl-3,5-dihydro-6H-spiro[furo[3,4-c]pyridine-1,4′-piperidin]-6-one] | 8.37
